For orientation: IC50 means the point on the concentration scale where inhibition reaches its midpoint. The term Papp A→B denotes the apparent permeability from the apical to the basolateral side of a cell layer. Low readings indicate slow passage, high ones fast passage. By Papp B→A is commonly meant the apparent permeability from the basolateral to the apical side of a cell layer. Usually fraction unbound stands for free concentration divided by total concentration. Low values mean extensive binding, high ones weak binding. As a reminder, the solubility is the dissolved amount per volume that the medium holds.

Structures are written as SMILES. Like-named read-outs stand apart in the source and are kept apart here.

From US20110172422A1, “Methods of Making Pharmacokinetically Improved Compounds Comprising Functional Residues or Groups and Pharmaceutical Compositions Comprising Said Compounds” (SURFACE LOGIX, INC., priority 2005, published 2011) come the findings set out here.

In one series the target is PDE-6. The experiment in a line: Phosphodiesterase inhibition PDE-6. It counts as biochemical. How it is done:
(§1) Phosphodiesterase inhibition was determined by methods known to one of skill in the art.

A further series is described as follows: Cytotoxicity GC50. It counts as cell-based.
A short description of a further series: Caco-2 permeability. The note with it: human; for Papp A→B: AtoB; for Papp B→A: BtoA. Type of series: in vitro ADME. The source says:
Several model systems are available, employing monolayers of various cell types, for evaluation of active transport of pharmaceutically active substances. For example, monolayers of Caco-2 intestinal epithelial cells can be used to evaluate active transport of substances between the intestine and the bloodstream. When plated on a surface which allows the flow of material from apical to basolateral and vice versa, such cells form a biological membrane which can be used to simulate physiological absorption and bio-availability. In another example, mouse brain capillary endothelial cell (MBEC) lines have been established to evaluate active transport in and out of the central nervous system. Another example of such cells is HT29 human colon carcinoma cells. Further, monolayers expressing particular transporter proteins can be established using transfected cells. For example, Sasaki et al (2002) J. Biol. Chem. 8:6497 used a double-transfected Madin-Darby canine kidney cell monolayer to study transport of organic anions.
In general terms: Caco-2 monolayers are a common model of the intestinal barrier.

The nature of another series: Protein binding. Particulars: human, human serum components. It counts as in vitro ADME. How it is done:
In general, protein binding is assessed by measuring the capacity of molecules of the invention to bind to one or more human serum components or mimics thereof. In one embodiment, suitable functional residues may be identified by screening of surfaces comprising such residues for their ability to resist adsorption of serum components, including, but not limited to serum proteins, and preferably human serum proteins. Candidate residues can be screened directly by attaching them to a solid support and testing the support for protein resistance. Alternatively, candidate residues are incorporated into, or linked to molecules of pharmaceutical interest. Such compounds may be synthesized on a solid support, or bound to a solid support after synthesis. In a non-limiting example of a direct binding assay, immobilized candidate functional residues or molecules incorporating such residues are tested for their ability to bind serum components. The serum components can be labeled with a signaling moiety for detection, or a labeled secondary reagent that binds to such serum components can be used.

A further series can be described thus: Solubility. Type of series: physicochemical.
A further series concerns the target PDE-1. The experiment in a line: Phosphodiesterase inhibition PDE-1. Type of series: biochemical. Here is the method:
as §1

The target of another series is PDE-3. The experiment in a line: Phosphodiesterase inhibition PDE-3. It counts as biochemical. How it is done: as §1
A further series can be described thus: PAMPA permeability. It counts as in vitro ADME. Particulars: PAMPA. For orientation: PAMPA measures passive passage across an artificial lipid membrane.
Another series in a line: Non-specific binding. It counts as in vitro ADME.
The target in series [1] is T1, PDE5 (Homo sapiens, UniProt O76074). Nature of the series: Phosphodiesterase inhibition PDE-5 human. It counts as biochemical. How it is done:
as §1

Series [2] has as its target T1, PDE5. The experiment in a line: Phosphodiesterase inhibition IC50 (Table 1). Type of series: biochemical. The note with it: PDE5 inhibitor scaffold Compound B. How it is done:
as §1

The nature of the next series: RLM half-life. Type of series: in vitro ADME. The note with it: rat, liver microsomes, read-out: RLM T1/2. On the technique in general: Liver microsomes are a subcellular fraction often used to study metabolism.
The next series in a line: Cytotoxicity LC50. Particulars: Chronic; read-out: Cytotox LC50 Chronic. Type of series: cell-based.
Setting [3] is: pH 2.7, aqueous buffer, pH 2.7, read-out: Solubility pH 2.7.
Setting [4] is: pH 7.4, aqueous buffer, pH 7.4, read-out: Solubility pH 7.4.

As for `CCCc1nc(C)c2c(=O)[nH]c(-c3cc(S(=O)(=O)N(C)C(C)(C)C(=O)N(C)C)ccc3OCC)nn12` [Compound 3], the results for the IC50 on PDE-6, against PDE-1 and against PDE-3 were 1.7 nM, 10 nM and 412 nM, respectively. For the same molecule, the “Cytotox GC50” value in the series “Cytotoxicity GC50” amounted to 100000 nM. The molecule also returned an apparent permeability from apical to basolateral (Papp A→B) in the series “Caco-2 permeability” of 28.9 ×10⁻⁶ cm/s. Further, the apparent permeability from basolateral to apical (Papp B→A) in “Caco-2 permeability” is 58.5 ×10⁻⁶ cm/s. Further, the fraction unbound in “Protein binding” was 0.076. The solubility in “Solubility” (setting [3]) and in “Solubility” (setting [4]) was greater than 100 µg/mL throughout. In the series “PAMPA permeability” (Hex, read-out: PAMPA Hex), the Papp turned out to be 9.11 ×10⁻⁶ cm/s. Also, the “Non-Spec Binding” value in “Non-specific binding” is listed as 14.3%.
`CCCc1nc(C)c2c(=O)[nH]c(-c3cc(S(=O)(=O)NC)ccc3OCC)nn12` [Compound 20]: the IC50 at PDE-6 amounted to 4.18 nM; on PDE5 [1], 0.243 nM; against PDE-1, 28 nM; at PDE5 [2] it was 0.24 nM; against PDE-3, 1010 nM. The “Cytotox GC50” value in the series “Cytotoxicity GC50” is 100000 nM. In addition, the apparent permeability from apical to basolateral (Papp A→B) in the series “Caco-2 permeability” was 24.3 ×10⁻⁶ cm/s. The molecule further came in with a Papp B→A in the series “Caco-2 permeability” of 53 ×10⁻⁶ cm/s. Also, the fraction unbound in “Protein binding” is 0.0397. Further, the solubility in “Solubility” (setting [3]) and in the series “Solubility” (setting [4]) was greater than 100 µg/mL each time. Also, the half-life in the series “RLM half-life” turned out to be 1 h. For the same molecule, the Papp in “PAMPA permeability” (Hex, read-out: PAMPA Hex) worked out at 0.37 ×10⁻⁶ cm/s; in “PAMPA permeability” (Lec, read-out: PAMPA Lec), 0.00384 ×10⁻⁶ cm/s. The “Non-Spec Binding” value in the series “Non-specific binding” is recorded as 16.23%. In addition, the CC50 in the series “Cytotoxicity LC50” amounted to 100000 nM.
